Values belong to the compound of their own block, whether it stands above or below them. Calls of active or inactive are those of the source. No cut-off for these calls is given here.
Assays:
[1] = biological target: T1, Heat shock protein HSP 90-alpha (Homo sapiens, UniProt P07900); assay: Inhibition of recombinant Homo sapiens (human) Hsp90 alpha ATPase activity assessed as inorganic phosphate release at 10 uM by malachite green colorimetric method
[2] = biological target: T1, Heat shock protein HSP 90-alpha; assay: Inhibition of recombinant Homo sapiens (human) Hsp90 alpha ATPase activity assessed as inorganic phosphate release by malachite green colorimetric method

Structure (SMILES): O=C(C[n+]1cccc(C(=O)Nc2ccc(Cl)cc2)c1)Nc1ccc(Cl)cc1
inhibition [1]: inactive

Structure (SMILES): Cc1ccc(NC(=O)C[n+]2cccc(C(=O)Nc3ccc([N+](=O)[O-])cc3)c2)cc1
inhibition [1]: 21%

Structure (SMILES): COc1ccc(NC(=O)C[n+]2cccc(C(=O)Nc3ccc(Cl)cc3)c2)cc1
inhibition [1]: 2%

Structure (SMILES): COc1ccc(NC(=O)C[n+]2cccc(C(=O)Nc3ccc(SC)cc3)c2)cc1
inhibition [1]: 29%

Structure (SMILES): NS(=O)(=O)c1ccc(NC(=O)C[n+]2cccc(C(=O)Nc3ccc(Cl)cc3)c2)cc1
inhibition [1]: 3%

Structure (SMILES): Cc1ncc(C[n+]2csc(CCO)c2C)c(N)n1 [THIAMINE ION]
inhibition [1]: 40%
IC50 [2]: 12.5 µM

Structure (SMILES): C=CCNC(=O)c1ccc[n+](CC(=O)Nc2ccc(OC)cc2)c1
inhibition [1]: 32%
IC50 [2]: 48.5 µM

Structure (SMILES): CSc1ccc(NC(=O)C[n+]2cccc(C(=O)Nc3ccc(Cl)cc3)c2)cc1
inhibition [1]: 24%

Structure (SMILES): CSc1ccc(NC(=O)c2ccc[n+](CC(=O)Nc3ccc(C)cc3)c2)cc1
inhibition [1]: 18%

Structure (SMILES): CCOC(=O)C[n+]1cccc(C(N)=O)c1
inhibition [1]: 13%

Structure (SMILES): Cc1ccc(NC(=O)C[n+]2cccc(C(=O)Nc3ccc(Cl)cc3)c2)cc1
inhibition [1]: 48%
IC50 [2]: 17.3 µM

Structure (SMILES): N=C(N)NS(=O)(=O)c1ccc(NC(=O)C[n+]2cccc(C(N)=O)c2)cc1
inhibition [1]: 29%

Structure (SMILES): COc1ccc(NC(=O)C[n+]2cccc(C(=O)Nc3ccc([N+](=O)[O-])cc3)c2)cc1
inhibition [1]: inactive

Structure (SMILES): COc1ccc(NC(=O)C[n+]2cccc(C(=O)Nc3ccc(OC)cc3)c2)cc1
inhibition [1]: 3%

Structure (SMILES): CC(=O)NS(=O)(=O)c1ccc(NC(=O)C[n+]2cccc(C(N)=O)c2)cc1
inhibition [1]: 36%
IC50 [2]: 12.7 µM

Structure (SMILES): C=CCNC(=O)c1ccc[n+](CC(=O)Nc2ccc([N+](=O)[O-])cc2)c1
inhibition [1]: 20%

Structure (SMILES): COc1ccc(NC(=O)c2ccc[n+](CC(=O)Nc3ccc(Cl)cc3)c2)cc1
inhibition [1]: 10%

Structure (SMILES): NS(=O)(=O)c1ccc(NC(=O)C[n+]2cccc(C(=O)Nc3ccc([N+](=O)[O-])cc3)c2)cc1
inhibition [1]: 8%

Structure (SMILES): CSc1ccc(NC(=O)c2ccc[n+](CC(=O)Nc3ccc(Cl)cc3)c2)cc1
inhibition [1]: 19%

Structure (SMILES): COc1ccc(NC(=O)c2ccc[n+](CC(=O)Nc3ccc(C)cc3)c2)cc1
inhibition [1]: 20%

Structure (SMILES): CSc1ccc(NC(=O)c2ccc[n+](CC(=O)Nc3ccc([N+](=O)[O-])cc3)c2)cc1
inhibition [1]: 3%

Structure (SMILES): C=CCNC(=O)C[n+]1cccc(C(N)=O)c1
inhibition [1]: inactive

Structure (SMILES): O=C(C[n+]1cccc(C(=O)Nc2ccc(Cl)cc2)c1)Nc1ccc([N+](=O)[O-])cc1
inhibition [1]: 24%

Structure (SMILES): COc1ccc(NC(=O)c2ccc[n+](CC(=O)Nc3ccc(S(N)(=O)=O)cc3)c2)cc1
inhibition [1]: 23%

Structure (SMILES): COc1ccc(NC(=O)c2ccc[n+](CC(=O)Nc3ccc([N+](=O)[O-])cc3)c2)cc1
inhibition [1]: inactive

Results, then the compound that gave them:

inhibition [1]: 17%
Structure (SMILES): O=C(C[n+]1cccc(C(=O)Nc2ccccc2)c1)Nc1ccc(Cl)cc1

inhibition [1]: 20%
Structure (SMILES): NC(=O)c1ccc[n+](CC(=O)NCc2ccccc2)c1

inhibition [1]: inactive
Structure (SMILES): Cc1ccc(NC(=O)C[n+]2ccccc2)cc1

inhibition [1]: 37%
IC50 [2]: 13.3 µM
Structure (SMILES): NC(=O)c1ccc[n+](CC(=O)Nc2ccccc2)c1

inhibition [1]: 7%
Structure (SMILES): NS(=O)(=O)c1ccc(NC(=O)C[n+]2ccccc2)cc1

inhibition [1]: 47%
IC50 [2]: 26.6 µM
Structure (SMILES): NS(=O)(=O)c1ccc(NC(=O)C[n+]2cccc(C(=O)Nc3ccccc3)c2)cc1

inhibition [1]: 10%
Structure (SMILES): NC(=O)c1ccc[n+](Cc2ccccc2)c1

inhibition [1]: 46%
IC50 [2]: 16.4 µM
Structure (SMILES): NC(=O)c1ccc[n+](CC(=O)NCCc2ccccc2)c1

inhibition [1]: 36%
IC50 [2]: 49.6 µM
Structure (SMILES): O=C(C[n+]1ccccc1)NCc1ccccc1

inhibition [1]: 3%
Structure (SMILES): O=C(C[n+]1ccccc1)Nc1ccccc1

inhibition [1]: 32%
IC50 [2]: 12 µM
Structure (SMILES): NC(=O)c1ccc[n+](CC(=O)Nc2ccc(S(N)(=O)=O)cc2)c1

inhibition [1]: 23%
Structure (SMILES): C=CCNC(=O)c1ccc[n+](CC(=O)Nc2ccc(C)cc2)c1

inhibition [1]: 43%
IC50 [2]: 13.3 µM
Structure (SMILES): COc1ccc(NC(=O)C[n+]2ccccc2)cc1

inhibition [1]: 62%
IC50 [2]: 7.6 µM
Structure (SMILES): NC(=O)c1ccc[n+](CC(=O)Nc2ccc([N+](=O)[O-])cc2)c1

inhibition [1]: 34%
IC50 [2]: 13.2 µM
Structure (SMILES): Cc1cccc(NC(=O)C[n+]2cccc(C(N)=O)c2)c1

inhibition [1]: 46%
IC50 [2]: 12.7 µM
Structure (SMILES): CC(=O)NS(=O)(=O)c1ccc(NC(=O)C[n+]2ccccc2)cc1

inhibition [1]: 34%
IC50 [2]: 14.9 µM
Structure (SMILES): O=C(C[n+]1ccccc1)Nc1ccc([N+](=O)[O-])cc1

inhibition [1]: 8%
Structure (SMILES): Cc1ccccc1NC(=O)C[n+]1cccc(C(N)=O)c1

inhibition [1]: 24%
Structure (SMILES): NC(=O)c1ccc[n+](CC(=O)Nc2ccc(Cl)cc2)c1

inhibition [1]: 11%
Structure (SMILES): O=C(C[n+]1cccc(C(=O)Nc2ccccc2)c1)Nc1ccc([N+](=O)[O-])cc1

inhibition [1]: 14%
Structure (SMILES): CSc1ccc(NC(=O)C[n+]2cccc(C(=O)Nc3ccccc3)c2)cc1

inhibition [1]: 4%
Structure (SMILES): COc1ccc(NC(=O)C[n+]2cccc(C(=O)Nc3ccccc3)c2)cc1

inhibition [1]: 20%
Structure (SMILES): N=C(N)NS(=O)(=O)c1ccc(NC(=O)C[n+]2ccccc2)cc1

inhibition [1]: 16%
Structure (SMILES): Cc1ccc(NC(=O)C[n+]2cccc(C(=O)Nc3cccc(C)c3)c2)cc1

inhibition [1]: 34%
IC50 [2]: 42.2 µM
Structure (SMILES): Cc1ccc(NC(=O)C[n+]2cccc(C(N)=O)c2)cc1

inhibition [1]: 20%
Structure (SMILES): COc1ccc(NC(=O)C[n+]2cccc(C(N)=O)c2)cc1

inhibition [1]: 12%
Structure (SMILES): Cc1cccc(NC(=O)C[n+]2ccccc2)c1

inhibition [1]: 24%
Structure (SMILES): Cc1cccc(NC(=O)c2ccc[n+](CC(=O)Nc3ccc(Cl)cc3)c2)c1

inhibition [1]: 1.6%
Structure (SMILES): C=CCNC(=O)c1ccc[n+](CC(=O)Nc2ccc(Cl)cc2)c1

inhibition [1]: 59%
IC50 [2]: 7.4 µM
Structure (SMILES): Cc1ccc(NC(=O)C[n+]2cccc(C(=O)Nc3ccccc3)c2)cc1

inhibition [1]: 3%
Structure (SMILES): O=C(C[n+]1ccccc1)Nc1ccc(Cl)cc1

inhibition [1]: 9%
Structure (SMILES): NC(=O)c1ccc[n+](CCc2ccccc2)c1

— ChEMBL document CHEMBL3046576, “Rational exploration of new pyridinium-based HSP90 inhibitors tailored to thiamine structure” (Med Chem Res, 2012)
